{
  "source": "patent US4276378A",
  "about": "“High sensitivity assays for angiotensin converting enzyme” (priority 1977, dated 1981)",
  "key": {"[1]": {"tested_on": "enzyme isolated from hog lung (ACE)", "settings": "cited from earlier work"}, "ACE [2]": {"target": "T1, ACE (Oryctolagus cuniculus, UniProt P12822)", "T1 sequence (P12822 34-1310)": "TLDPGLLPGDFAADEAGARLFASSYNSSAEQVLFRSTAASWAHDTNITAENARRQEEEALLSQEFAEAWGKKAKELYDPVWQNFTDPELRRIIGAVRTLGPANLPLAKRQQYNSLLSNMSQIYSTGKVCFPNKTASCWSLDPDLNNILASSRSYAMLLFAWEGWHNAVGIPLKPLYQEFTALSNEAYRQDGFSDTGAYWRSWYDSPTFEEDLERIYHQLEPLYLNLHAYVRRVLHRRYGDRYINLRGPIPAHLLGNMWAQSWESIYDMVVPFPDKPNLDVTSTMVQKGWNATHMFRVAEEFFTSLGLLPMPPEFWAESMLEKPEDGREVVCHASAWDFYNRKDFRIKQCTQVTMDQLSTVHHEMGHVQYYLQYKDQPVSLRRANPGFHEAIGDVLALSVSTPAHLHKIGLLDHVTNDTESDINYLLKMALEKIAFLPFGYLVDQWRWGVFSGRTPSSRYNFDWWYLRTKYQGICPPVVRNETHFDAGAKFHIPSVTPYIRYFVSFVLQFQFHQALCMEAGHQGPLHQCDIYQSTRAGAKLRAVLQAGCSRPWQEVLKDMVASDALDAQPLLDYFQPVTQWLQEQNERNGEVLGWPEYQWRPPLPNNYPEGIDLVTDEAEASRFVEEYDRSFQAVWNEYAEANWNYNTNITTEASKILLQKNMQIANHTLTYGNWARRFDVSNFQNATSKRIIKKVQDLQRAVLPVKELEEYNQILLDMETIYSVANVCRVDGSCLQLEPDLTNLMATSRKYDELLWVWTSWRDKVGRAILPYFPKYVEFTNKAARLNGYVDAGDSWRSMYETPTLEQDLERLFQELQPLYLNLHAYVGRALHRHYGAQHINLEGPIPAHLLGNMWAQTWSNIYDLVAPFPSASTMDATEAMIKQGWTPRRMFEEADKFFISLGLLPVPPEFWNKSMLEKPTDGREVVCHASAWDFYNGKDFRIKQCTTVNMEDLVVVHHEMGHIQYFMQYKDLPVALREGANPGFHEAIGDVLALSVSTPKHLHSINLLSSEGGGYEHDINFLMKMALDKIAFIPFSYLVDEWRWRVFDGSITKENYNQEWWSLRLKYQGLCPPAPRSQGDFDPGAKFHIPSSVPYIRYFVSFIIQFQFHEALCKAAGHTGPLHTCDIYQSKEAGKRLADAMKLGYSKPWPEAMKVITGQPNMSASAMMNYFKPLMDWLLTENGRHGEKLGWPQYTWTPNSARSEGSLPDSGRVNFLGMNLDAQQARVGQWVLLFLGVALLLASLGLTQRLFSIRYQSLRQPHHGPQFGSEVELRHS", "settings": "compared with a buffer presumably lacking chloride; cited from earlier work"}, "ACE [3]": {"target": "T1, ACE", "settings": "cited from earlier work"}, "[4]": {"assay": "Solvent extraction of substrate and remnant product from acidified reaction mixture", "assay_type": "physicochemical", "settings": "toluene and acidified reaction mixture in approximately equal volumes at room temperature", "description": "While a variety of organic solvents may be suitable for the extraction step, it is preferred to employ toluene."}, "[5]": {"settings": "sulfate ion 0.6 M in the presence of 0.1 M chloride, pH 8"}},
  "note": "Square brackets hold non-standard residues; d marks the D form. Peptide text beside a SMILES is read from it. * marks the point of attachment. pGlu = O=C1CC[C@@H](C(=O)O)N1; Boc = CC(C)(C)OC(=O)*; Bz = O=C(c1ccccc1)*; ClAc = O=C(CCl)*",
  "data": [
    {"smiles": "O=C(O)CNC(=O)CNC(=O)CNC(=O)c1ccccc1", "note": "[HipGlyGly] (Bz-Gly-Gly-Gly-OH)", "values": [
      {"measurement": "hydrolysis in the absence of NaCl", "setting": "[1]; Na2 SO4 0.001 M to 0.6 M, no NaCl", "value": "no hydrolysis"},
      {"measurement": "decrease of Km by sulfate", "setting": "[1]; [5]", "value": "about 15%"},
      {"measurement": "increase of Vmax by sulfate", "setting": "[1]; [5]", "value": "about 5 fold"}
    ]},
    {"smiles": "C[C@H](NC(=O)[C@H](Cc1c[nH]c2ccccc12)NC(=O)[C@H](CCCCN)NC(=O)[C@@H]1CCC(=O)N1)C(=O)N1CCC[C@H]1C(=O)O", "note": "[SQ20475, <GluLysTrpAlaPro] ([pGlu]KWAP-OH)", "values": [
      {"measurement": "rate of cleavage in the presence of chloride", "setting": "ACE [2]", "value": "more slowly"}
    ]},
    {"smiles": "C[C@H](NC(=O)[C@H](Cc1ccccc1)NC(=O)CCl)C(=O)N1CCC[C@H]1C(=O)O", "note": "[chloroacetylPheAlaPro] (ClAc-Phe-Ala-Pro-OH)", "values": [
      {"measurement": "ACE inhibition", "setting": "ACE [3]", "value": "ACE inhibitors"}
    ]},
    {"smiles": "C[C@H](NC(=O)[C@H](Cc1c[nH]c2ccccc12)NC(=O)[C@@H]1CCC(=O)N1)C(=O)N1CCC[C@H]1C(=O)O", "note": "[<GluTrpAlaPro] ([pGlu]WAP-OH)", "values": [
      {"measurement": "ACE inhibition", "setting": "ACE [3]", "value": "ACE inhibitors"}
    ]},
    {"smiles": "O=C(N[C@@H](Cc1ccccc1)C(=O)O)c1ccccc1", "note": "[^3 H-benzoylPhe, benzoylPhe]", "values": [
      {"measurement": "fraction entering the toluene phase", "setting": "[4]", "value": "Approximately 88%"}
    ]},
    {"smiles": "C[C@H](NC(=O)[C@H](Cc1c[nH]c2ccccc12)NC(=O)[C@H](CCCCN)NC(=O)[C@@H]1CCC(=O)N1)C(=O)O", "note": "[<GluLysTrpAla] ([pGlu]KWA-OH)", "values": [
      {"measurement": "ACE inhibition", "setting": "ACE [3]", "value": "ACE inhibitors"}
    ]},
    {"smiles": "C[C@H](NC(=O)[C@H](Cc1ccccc1)NC(=O)OC(C)(C)C)C(=O)N1CCC[C@H]1C(=O)O", "note": "[t-butyloxycarbonylPheAlaPro] (Boc-Phe-Ala-Pro-OH)", "values": [
      {"measurement": "ACE inhibition", "setting": "ACE [3]", "value": "inhibit ACE"}
    ]},
    {"smiles": "C[C@H](NC(=O)[C@@H](N)Cc1ccccc1)C(=O)N1CCC[C@H]1C(=O)O", "note": "[PheAlaPro] (H-Phe-Ala-Pro-OH)", "values": [
      {"measurement": "ACE inhibition", "setting": "ACE [3]", "value": "inhibit ACE"}
    ]}
  ]
}
